From patent US10323007B1, “N2N N4-disubstituted quinazoline-2,4-diamines and uses thereof” (University of South Florida, priority 2016, dated 2019)
In brackets after ≈: the same amount, converted by molar mass. Read-outs that look alike come from different tables or passages of the source.

Assays:
[1] = test system: A. baumannii 1651 biofilm; assay: biofilm eradication determination assay, strain 1651; assay type: cell-based, Acinetobacter baumannii; conditions: 90% biofilm eradication, Table 8
Procedure: (§1) These assays were performed as described by us previously,^26,24 as follows. Each of the A. baumannii strains were grown overnight in Mueller Hinton Broth (MHB). The next day these were used to seed fresh MHB to an OD600 of 0.5, with 150 μL then added to the wells of a 96 well plate and grown for 24 hours at 37° C. After 24 hours, the planktonic bacteria were carefully removed and fresh MHB was added with increasing concentrations of lead quinazolines. After incubation at 37° C. for 24 hours, planktonic cells were removed and biofilms were washed three times with phosphate buffered saline (PBS). Biofilms were then resuspended in PBS and plated for cell viability on tryptic soy agar. Biofilm recovery was assessed compared to no drug controls, and determined as percent eradication. This was used to determine MBEC90 values (Minimal Biofilm Eradication Concentration), where the viability of cells within the biofilm was reduced by 90%.

A. baumannii 1651 [2] = assay: MIC assay, strain 1651; assay type: cell-based, Acinetobacter baumannii; conditions: Acinetobacter baumannii, strain 1651
Procedure: (§2) MIC and MBC assays were performed in this study as documented by us previously.^17,23,24,25 The A. baumannii strains used are detailed in Table 7.

A. baumannii 1646 [3] = assay: MIC assay, strain 1646; assay type: cell-based, Acinetobacter baumannii; conditions: Acinetobacter baumannii
Procedure: as §2

[4] = test system: A. baumannii 1652 biofilm; assay: biofilm eradication determination assay, strain 1652; assay type: cell-based, Acinetobacter baumannii; conditions: 90% biofilm eradication, Table 8
Procedure: as §1

[5] = test system: A. baumannii 1649 biofilm; assay: biofilm eradication determination assay, strain 1649; assay type: cell-based, Acinetobacter baumannii; conditions: 90% biofilm eradication, Table 8
Procedure: as §1

[6] = test system: A. baumannii 1646 biofilm; assay: biofilm eradication determination assay, strain 1646; assay type: cell-based, Acinetobacter baumannii; conditions: for MBEC90: Table 6, representative data for isolate 1646; for reduction in biofilm viability: at 50 μM; for reduction in biofilm viability / MBEC90 1646: strain 1646; for MBEC90 1646: 90% biofilm eradication, Table 8 and text
Procedure: as §1

A. baumannii 1650 [7] = assay: minimal bactericidal concentration (MBC) assay, strain 1650; assay type: cell-based; conditions: Acinetobacter baumannii, Table 8, read-out: MBC90 1650
Description: (§3) Lead quinazolines 4, 5, 26, 29, 27, and 30 were selected to be further evaluated for antimicrobial effects. The first assay utilized was a minimal bactericidal concentration (MBC) assay, to assess whether leads compounds were bacteriostatic or bactericidal. The six lead agents were screened to identify their MBC90 towards each of the six A. baumannii isolates used in the SAR studies (Table 8), however for simplicity only the representative data for isolate 1646 is detailed below (Table 6). […] Further to this, we were able to obtain complete eradication of bacterial growth for these two compounds at 1 μM for 24 and 5 μM for 25.
as §2

[8] = test system: A. baumannii 1650 biofilm; assay: biofilm eradication determination assay, strain 1650; assay type: cell-based, Acinetobacter baumannii; conditions: 90% biofilm eradication, Table 8
Procedure: as §1

A. baumannii 1651 [9] = assay: minimal bactericidal concentration (MBC) assay, strain 1651; assay type: cell-based; conditions: Acinetobacter baumannii, Table 8, read-out: MBC90 1651
Description: as §3, §2

A. baumannii 1403 [10] = assay: MIC assay, strain 1403; assay type: cell-based, Acinetobacter baumannii; conditions: Acinetobacter baumannii, strain 1403
Procedure: as §2

A. baumannii 1649 [11] = assay: minimal bactericidal concentration (MBC) assay, strain 1649; assay type: cell-based; conditions: Acinetobacter baumannii, Table 8, read-out: MBC90 1649
Description: as §3, §2

A. baumannii 1649 [12] = assay: MIC assay, strain 1649; assay type: cell-based, Acinetobacter baumannii; conditions: Acinetobacter baumannii, strain 1649
Procedure: as §2

A. baumannii 1403 [13] = assay: minimal bactericidal concentration (MBC) assay, strain 1403; assay type: cell-based; conditions: Acinetobacter baumannii, Table 8, read-out: MBC90 1403
Description: as §3, §2

A. baumannii 1650 [14] = assay: MIC assay, strain 1650; assay type: cell-based, Acinetobacter baumannii; conditions: Acinetobacter baumannii, strain 1650
Procedure: as §2

human HepG2 cells = assay type: cell-based; conditions: for LD50(HepG2): human, 48 h
Procedure: Cytotoxicity assays were performed using human HepG2 cells (human liver epithelial with hepatocellular carcinoma), as described by us previously.^17,24 Cells were cultured in Dulbecco's modified eagle medium (DMEM), supplemented with 10% fetal bovine serum and 1% penicillin-streptomycin for 3 days at 37° C. and 5% CO2. Cells were then diluted to 1×10^5 ml^−1 using fresh DMEM and added to 96 well tissue culture plates at a volume of 100 μL. Plates were incubated for 24 hours at 37° C. and 5% CO2, allowing the cells to adhere to the plastic. […] Plates were then incubated for 48 hours at 37° C. and 5% CO2. After 48 hours the DMEM was removed and 100 μL of new media was added containing MTT (3-(4, 5-dimethylthiazol-2-yl)-2, 5-diphenyltetrazolium bromide), followed by incubation for four hours at 37° C. and 5% CO2. […] Lead compounds were solvated in 100% DMSO for these studies, which served as the negative control. LD50 values were determined for each compound by comparison to vehicle only controls.

A. baumannii 1652 [15] = assay: minimal bactericidal concentration (MBC) assay, strain 1652; assay type: cell-based; conditions: Acinetobacter baumannii, Table 8, read-out: MBC90 1652
Description: as §3, §2

A. baumannii 1652 [16] = assay: MIC assay, strain 1652; assay type: cell-based, Acinetobacter baumannii; conditions: Acinetobacter baumannii, strain 1652
Procedure: as §2

A. baumannii 1646 [17] = assay: minimal bactericidal concentration (MBC) assay, strain 1646; assay type: cell-based, Acinetobacter baumannii
Description: as §3, §2

[18] = test system: A. baumannii 1403 biofilm; assay: biofilm eradication determination assay, strain 1403; assay type: cell-based, Acinetobacter baumannii; conditions: 90% biofilm eradication, Table 8
Procedure: as §1

A. baumannii = assay: MIC assay, A. baumannii isolates (strain not given); assay type: cell-based, Acinetobacter baumannii; conditions: Acinetobacter baumannii; most isolates besides the 1652 strain; read-out: MIC against most isolates
Procedure: as §2

[19] = Tables 1, 3, 4, 5 and footnotes, read-out: 1651 MIC
[20] = lead quinazolines, Table 8, read-out: MIC 1651
[21] = Table 6, representative data for isolate 1646, read-out: MIC
[22] = strain 1646, Tables 1, 3, 4, 5 and footnotes, read-out: 1646 MIC
[23] = strain 1646, lead quinazolines, Table 8, read-out: MIC 1646
[24] = Tables 1, 3, 4, 5 and footnotes, read-out: 1403 MIC
[25] = lead quinazolines, Table 8, read-out: MIC 1403
[26] = Tables 1, 3, 4, 5 and footnotes, read-out: 1649 MIC
[27] = lead quinazolines, Table 8, read-out: MIC 1649
[28] = Tables 1, 3, 4, 5 and footnotes, read-out: 1650 MIC
[29] = lead quinazolines, Table 8, read-out: MIC 1650
[30] = at 25 μM (highest concentration tested)
[31] = Tables 1, 3, 4, 5 and footnotes, read-out: 1652 MIC
[32] = lead quinazolines, Table 8, read-out: MIC 1652
[33] = Acinetobacter baumannii, 1646, strain 1646, Table 8 and text, read-out: MBC90 1646
[34] = Acinetobacter baumannii, Table 6, representative data for isolate 1646, read-out: MBC90

| SMILES | MBEC90 1651 [1] | MIC (A. baumannii 1651 [2]; [19]) | MIC (A. baumannii 1651 [2]; [20]) | MIC (A. baumannii 1646 [3]; [21]) | MIC (A. baumannii 1646 [3]; [22]) | MIC (A. baumannii 1646 [3]; [23]) | MBEC90 1652 [4] | MBEC90 1649 [5] | MBEC90 [6] | MBEC90 1646 [6] | MBC (A. baumannii 1650 [7]) | MBEC90 1650 [8] | MBC (A. baumannii 1651 [9]) | MIC (A. baumannii 1403 [10]; [24]) | MIC (A. baumannii 1403 [10]; [25]) | MBC (A. baumannii 1649 [11]) | MIC (A. baumannii 1649 [12]; [26]) | MIC (A. baumannii 1649 [12]; [27]) | MBC (A. baumannii 1403 [13]) | MIC (A. baumannii 1650 [14]; [28]) | other results |
| --- | --- | --- | --- | --- | --- | --- | --- | --- | --- | --- | --- | --- | --- | --- | --- | --- | --- | --- | --- | --- | --- |
| CCC/C=C/c1ccc2nc(NCc3ccccc3)nc(NC)c2c1 [Compound 26, (E)-N^2-Benzyl-N^4-methyl-6-(pent-1-en-1-yl)quinazoline-2,4-diamine] | 24 µM | 2 µM (≈ 0.665 µg/mL) | 2 µM (≈ 0.665 µg/mL) | 1 µM (≈ 0.332 µg/mL) | 2 µM (≈ 0.665 µg/mL) | 1 µM (≈ 0.332 µg/mL) | 97 µM | 63 µM | 8.9 µM | 8.9 µM | 16 µM (≈ 5.32 µg/mL) | 50 µM | 5.7 µM (≈ 1.89 µg/mL) | 10 µM (≈ 3.32 µg/mL) | 10 µM (≈ 3.32 µg/mL) | 10 µM (≈ 3.32 µg/mL) | 10 µM (≈ 3.32 µg/mL) | 10 µM (≈ 3.32 µg/mL) | 40 µM (≈ 13.3 µg/mL) | 25 µM (≈ 8.31 µg/mL) | reduction in biofilm viability [6]: 1.4 log; MIC (A. baumannii 1650 [14]; [29]): 25 µM (≈ 8.31 µg/mL); HepG2 cell viability (human HepG2 cells; at 12 μM): 49%; HepG2 cell viability (human HepG2 cells; [30]): 41%; LD50(HepG2) (human HepG2 cells): 16 µM; MBC (A. baumannii 1652 [15]): 23 µM (≈ 7.65 µg/mL); MIC (A. baumannii 1652 [16]; [31]): 30 µM (≈ 9.97 µg/mL); MIC (A. baumannii 1652 [16]; [32]): 30 µM (≈ 9.97 µg/mL); MBC (A. baumannii 1646 [17]; [33]): 1.8 µM (≈ 0.598 µg/mL); MBC (A. baumannii 1646 [17]; [34]): 1.8 µM (≈ 0.598 µg/mL); complete bacterial eradication concentration as multiple of MIC (A. baumannii 1646 [17]; isolate 1646): 5 ×; concentration giving complete eradication of bacterial growth (A. baumannii 1646 [17]; isolate 1646): 5 µM; MBEC90 1403 [18]: 24 µM |
| CNc1nc(NCc2ccccc2)nc2ccc(C3CCCCC3)cc12 [Compound 30, N^2-Benzyl-6-cyclohexyl-N^4-methylquinazoline-2,4-diamine] | 33 µM | 2 µM (≈ 0.693 µg/mL) | 20 µM (≈ 6.93 µg/mL) | 2 µM (≈ 0.693 µg/mL) | 2 µM (≈ 0.693 µg/mL) | 2 µM (≈ 0.693 µg/mL) | >100 µM | 68 µM | 41.2 µM | 41 µM | 22 µM (≈ 7.62 µg/mL) | 46 µM | 28 µM (≈ 9.7 µg/mL) | 2 µM (≈ 0.693 µg/mL) | 20 µM (≈ 6.93 µg/mL) | 33 µM (≈ 11.4 µg/mL) | 2 µM (≈ 0.693 µg/mL) | 15 µM (≈ 5.2 µg/mL) | 32 µM (≈ 11.1 µg/mL) | 2 µM (≈ 0.693 µg/mL) | MIC (A. baumannii): 2 µM (≈ 0.693 µg/mL); reduction in biofilm viability [6]: 4.2 log; MIC (A. baumannii 1650 [14]; [29]): 20 µM (≈ 6.93 µg/mL); HepG2 cell viability (human HepG2 cells; [30]): 39%; LD50(HepG2) (human HepG2 cells): 11 µM; MBC (A. baumannii 1652 [15]): 17 µM (≈ 5.89 µg/mL); MIC (A. baumannii 1652 [16]; [31]): 10 µM (≈ 3.46 µg/mL); MIC (A. baumannii 1652 [16]; [32]): 20 µM (≈ 6.93 µg/mL); MBC (A. baumannii 1646 [17]; [33]): 1.1 µM (≈ 0.381 µg/mL); MBC (A. baumannii 1646 [17]; [34]): 1.1 µM (≈ 0.381 µg/mL); MBEC90 1403 [18]: 21 µM |
| CCCCCc1ccc2nc(NCc3ccccc3)nc(NC)c2c1 [Compound 27, N^2-Benzyl-N^4-methyl-6-pentylquinazoline-2,4-diamine] | 18 µM | 2 µM (≈ 0.669 µg/mL) | 10 µM (≈ 3.34 µg/mL) | 1 µM (≈ 0.334 µg/mL) | 2 µM (≈ 0.669 µg/mL) | 1 µM (≈ 0.334 µg/mL) | 64 µM | 62 µM | 11.5 µM | 12 µM | 20 µM (≈ 6.69 µg/mL) | 49 µM | 4.1 µM (≈ 1.37 µg/mL) | 2 µM (≈ 0.669 µg/mL) | 15 µM (≈ 5.02 µg/mL) | 43 µM (≈ 14.4 µg/mL) | 2 µM (≈ 0.669 µg/mL) | 10 µM (≈ 3.34 µg/mL) | 20 µM (≈ 6.69 µg/mL) | 2 µM (≈ 0.669 µg/mL) | MIC (A. baumannii): 2 µM (≈ 0.669 µg/mL); MIC (A. baumannii 1650 [14]; [29]): 10 µM (≈ 3.34 µg/mL); HepG2 cell viability (human HepG2 cells; [30]): 31%; LD50(HepG2) (human HepG2 cells): 12 µM; MBC (A. baumannii 1652 [15]): 23 µM (≈ 7.69 µg/mL); MIC (A. baumannii 1652 [16]; [31]): 10 µM (≈ 3.34 µg/mL); MIC (A. baumannii 1652 [16]; [32]): 20 µM (≈ 6.69 µg/mL); MBC (A. baumannii 1646 [17]; [33]): 1.1 µM (≈ 0.368 µg/mL); MBC (A. baumannii 1646 [17]; [34]): 1.1 µM (≈ 0.368 µg/mL); MBEC90 1403 [18]: 12 µM |
